Data: patent US12686855B2, “Generation of pancreatic endoderm from stem cell derived definitive endoderm” (ASPECT BIOSYSTEMS LTD., priority 2019, dated 2026)

Legend:
[1] = test system: definitive endoderm cells derived from human pluripotent stem cells (hES line SA121); test: Differentiation of definitive endoderm to pancreatic endoderm, gene expression analysis (Nanostring) on PE10; assay type: cell-based; details: treatment on PE2-3, vs standard protocol
Protocol: (§1) Human embryonic stem (hES) cells line SA121 (Cellectis) are expanded in DEF-CS culture medium (Takara BIO Europe) in fibronectin (Sigma) coated culture flasks (Corning) with 30 ng/ml bFGF (Peprotech) and 10 ng/ml noggin (Peprotech). Cells are single cell passaged with 10 μM Rock inhibitor Y-27632 (Sigma #Y0503) and seeded in shaker flasks or bioreactors (DASBOX, DASGIP, Eppendorf) at a density of 0.5-1 mio/ml and allowed to form clusters under constant stirring conditions.
(§2) After 1-3 days in DEF-CS medium with daily medium change, the clusters are differentiated to DE as described in WO2012/175633 (which is incorporated herein by reference in its entirety). The cell clusters are washed once in RPM11640 (Gibco #61870) and treated with 2-7 μM CHIR99021 (Axon #1386) in RPM11640. After 24 hours the cells were washed with RPM11640 and treated with 25-100 ng/ml Activin A (Peprotech #120-14E) and 2% B27 (Invitrogen #17504-044) in RPM11640 for 3 days with medium change every 24 or 48 hours. Cells are maintained at 37° C. and 5% CO2 in a humidified shaker incubator (Infors) during the differentiation to DE, or in a bioreactor system (DASBOX, DASGIP, Eppendorf).
(§3) Medium was changed daily or every other day. At the end of PE differentiation clusters were analysed by flow cytometry or gene expression analysis (Nanostring). 10 μM AGN193109 (Tocris 5758) was added to the LDN stage of PE differentiation, whereas the remaining part of the protocol was unchanged.

[2] = target: T1, RARβ (Homo sapiens, UniProt P10826); details: cited from earlier work
T1 sequence (P10826 1-455): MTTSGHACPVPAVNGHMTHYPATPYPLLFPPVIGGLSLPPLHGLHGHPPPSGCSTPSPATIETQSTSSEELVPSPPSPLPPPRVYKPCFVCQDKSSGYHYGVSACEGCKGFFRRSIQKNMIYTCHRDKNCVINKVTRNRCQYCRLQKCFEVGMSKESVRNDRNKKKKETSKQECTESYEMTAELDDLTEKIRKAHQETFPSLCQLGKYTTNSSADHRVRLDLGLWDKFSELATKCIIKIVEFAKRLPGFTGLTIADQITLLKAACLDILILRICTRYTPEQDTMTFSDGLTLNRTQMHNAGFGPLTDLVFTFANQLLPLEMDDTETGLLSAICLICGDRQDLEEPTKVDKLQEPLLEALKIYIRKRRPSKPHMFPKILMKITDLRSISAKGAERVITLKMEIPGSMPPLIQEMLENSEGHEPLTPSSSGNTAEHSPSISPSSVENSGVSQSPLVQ

[3] = test system: human ES cell or human iPS cell derived PE clusters; test: Further differentiation of PE clusters to beta cell like cells, flow cytometry on Cpep/Nkx6.1 and glucagon; assay type: cell-based; details: for Cpep/Nkx6.1 double positive: extended in vitro culture
Text: The human ES cell or human iPS cell derived PE clusters are washed and further differentiated to endocrine progenitors (EP) and beta cell like cells (BC), using protocols for endocrine and beta cell induction, as described in WO2015/028614, WO2017/144695 and WO/2019/048690, which are all incorporated herein by reference in their entirety.
At the end of BC differentiation clusters were sampled, dissociated to single cells with TrypLE-Select (Gibco 12563-011), fixed in 10% formalin, stained with Cpep/Nkx6.1 and glucagon and analyzed by flow cytometry.

[4] = test system: definitive endoderm cells derived from human pluripotent stem cells (hES line SA121); test: Differentiation of definitive endoderm to pancreatic endoderm, flow cytometry (FACS) at PE stage; assay type: cell-based; details: PE10
[5] = target: T1, RARβ; details: RARβ transfected CV-1 cells; equal molar AGN 193109 against ATRA; cited from earlier work
[6] = target: T2, RARγ (Homo sapiens, UniProt P13631); details: RARγ transfected CV-1 cells; equal molar AGN 193109 against ATRA; cited from earlier work
T2 sequence (P13631 1-454): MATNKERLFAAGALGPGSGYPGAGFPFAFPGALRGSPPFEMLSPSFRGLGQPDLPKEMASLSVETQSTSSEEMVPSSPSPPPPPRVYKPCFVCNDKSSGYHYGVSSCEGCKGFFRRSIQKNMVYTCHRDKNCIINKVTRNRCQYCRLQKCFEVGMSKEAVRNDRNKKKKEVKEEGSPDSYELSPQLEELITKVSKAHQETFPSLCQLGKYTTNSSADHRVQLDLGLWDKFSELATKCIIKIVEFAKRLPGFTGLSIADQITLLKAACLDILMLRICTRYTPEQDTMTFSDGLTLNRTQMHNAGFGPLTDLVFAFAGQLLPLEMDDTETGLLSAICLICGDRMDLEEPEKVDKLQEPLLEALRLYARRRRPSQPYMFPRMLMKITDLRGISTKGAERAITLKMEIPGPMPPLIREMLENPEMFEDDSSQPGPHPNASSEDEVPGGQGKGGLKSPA

[7] = target: T3, RARα (Homo sapiens, UniProt P10276); details: cited from earlier work
T3 sequence (P10276 1-462): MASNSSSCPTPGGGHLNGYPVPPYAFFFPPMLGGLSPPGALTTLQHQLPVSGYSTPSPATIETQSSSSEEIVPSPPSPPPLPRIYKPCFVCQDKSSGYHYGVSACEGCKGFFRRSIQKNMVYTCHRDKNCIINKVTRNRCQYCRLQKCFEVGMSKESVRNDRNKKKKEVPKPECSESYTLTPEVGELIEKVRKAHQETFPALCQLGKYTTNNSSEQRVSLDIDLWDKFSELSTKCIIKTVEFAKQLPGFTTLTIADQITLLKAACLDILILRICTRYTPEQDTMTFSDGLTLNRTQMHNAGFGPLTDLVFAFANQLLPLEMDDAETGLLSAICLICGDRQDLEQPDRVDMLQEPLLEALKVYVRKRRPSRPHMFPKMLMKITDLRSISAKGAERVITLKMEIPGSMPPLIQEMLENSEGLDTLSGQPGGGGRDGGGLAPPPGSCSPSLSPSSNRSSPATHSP

[8] = test system: definitive endoderm cells derived from human pluripotent stem cells (hES line SA121); test: Differentiation of definitive endoderm to pancreatic endoderm, flow cytometry (FACS) at PE stage; assay type: cell-based
Protocol: as §1, §2, §3

[9] = target: T2, RARγ; details: cited from earlier work
[10] = test system: differentiated cells at the beta cell stage; test: Transplantation of differentiated cells at the beta cell stage, immunohistochemistry and quantitative image analysis; assay type: in vivo; details: 8 weeks after transplantation
[11] = target: T3, RARα; details: RARα transfected CV-1 cells; equal molar AGN 193109 against ATRA; cited from earlier work
[12] = treatment on PE2-3, PE10, standard protocol 52%, FIG. 4

Compound: Cc1ccc(C2=CCC(C)(C)c3ccc(C#Cc4ccc(C(=O)O)cc4)cc32)cc1 [AGN193109]
- CPA1 expression [1]: increase
- DLK1 expression [1]: increase
- NeuroD expression [1]: lower expression
- Ngn3 expression [1]: lower expression
- PTF1A expression [1]: increase
- Kd [2]: 2 nM
- Cpep/Nkx6.1 double positive beta like cells ([3]; AGN193109 in LDN stage (PE2-3), BC6-9, standard around 35%): around 50%
- Glucagon positive cells ([3]; AGN193109 in LDN stage, BC stage, FIG. 7B): not accompanied by an increase
- Cpep/Nkx6.1 double positive ([3]; BC day 6, standard protocol 53%): 59%
- Cpep/Nkx6.1 double positive ([3]; BC day 13, standard protocol 27%): 57%
- Pdx1-only positive cells with increasing concentrations ([4]; 1, 3 and 10 μM on PE2-3, FIG. 5A): decrease
- effect of increasing the concentration from 10 μM to 20 μM on PE induction ([4]; PE2-3, FIG. 5B): no additional effect
- dose dependence of effect on Pdx1/Nkx6.1 double positive cells ([4]; range from 0.5 μM to 20 μM on PE2-3): dose-responsive
- antagonism of ATRA-induced transcription [5]: 62%
- antagonism of ATRA-induced transcription [6]: 100%
- Kd [7]: 2 nM
- Pdx1/Nkx6.1 double positive ([8]; 10 μM for last 2 days of LDN stage (PE2-3), PE10, standard condition around 40%, FIGS. 1A,B): at least 70%
- Pdx1/Nkx6.1 double negative cells ([8]; 10 μM on PE2-3, PE10): less than 10%
- effect on PE induction (Pdx1/Nkx6.1 double positive) of extending addition from 2 to 4 days in the LDN stage ([8]; 10 μM, PE10, FIG. 6A): without any negative effect
- Pdx1/Nkx6.1 double positive ([8]; 1 L bioreactors (DASgip, Eppendorf), 10 μM on PE2-3, PE10, standard protocol 58.4%, not run in parallel): 82.2%
- DLK1 expressing pancreatic endoderm (flow cytometry) ([8]; added on PE2-3, PE11, standard 13%): 31%
- Pdx1/Nkx6.1 double positive cells ([8]; rescue of suboptimal PE differentiation, standard 20%, PE10): 75%
- percentage of Nkx2.2 positive cells at the PE stage ([8]; treatment on PE2-3, PE10, control 2.9%): less than 1%
- Pdx1/Nkx6.1 double positive [8, 12]: 76.9%
- Kd [9]: 2 nM
- beta to alpha cell ratio (fraction of insulin positive cells relative to glucagon positive cells) [10]: higher
- antagonism of ATRA-induced transcription [11]: 85%

Compound: AM580
- DLK1 expression [1]: marked down regulation
- NeuroD expression [1]: marked increase
- Ngn3 expression [1]: marked increase
- Nkx6.1 expression [1]: marked down regulation
- PTF1A expression [1]: marked down regulation
- Pdx1/Nkx6.1 double positive [8, 12]: ~ 14%
